These results are taken from patent US20050113331A1, “Compositions and methods for use of antiviral drugs in the treatment of retroviral diseases resistant to nucleoside reverse transcriptase inhibitors” (priority 2003, published 2005).

Read-outs that look alike come from different tables or passages of the source.

One assay relates to wild type HIV-1. As to the kind of experiment: Antiviral activity against wild type HIV-1 in P4/R5 cells. It counts as cell-based. The following applies: Human immunodeficiency virus 1, compound alone, read-out: EC50 against replication.
For a further assay, the system named is AZT-resistant HIV-1. As to the kind of experiment: Antiviral activity against AZT-resistant HIV-1 in P4/R5 cells. In kind it is cell-based. The procedure: P4/R5 cells are plated in 96-well culture dishes at a cell density of 3×10^3 cells/well in 100 μl DMEM/10% fetal bovine serum. In one set of plates, bisphosphonate variants are added (25μM final concentration in FIG. 6) to individual wells. In another identical set of plates, bisphosphonate variants are added along with specific concentrations of AZT (0.1 μM final concentration in FIG. 6). Each well is inoculated with AZT-resistant HIV (multiplicity of infection=1), and the cells are incubated at 37° C. for 48 hours. The cells are then washed and the extent of HIV infection is determined fluorometrically. The percent inhibition of HIV replication is calculated as [1-(fluorescence signal of cells infected in the presence of bisphosphonate divided by the fluorescence signal of cells infected in the absence of any drug)] multiplied by 100.

Assay [1] deals with TAM-mutant HIV-1 reverse transcriptase (UniProt P04585). In kind it is biochemical. The arrangement: other: preferred BPH variants. The conditions noted are these: read-out: Estimated IC50; preferred BPH variants; quantity inhibited not given. The procedure: (§1) An 18 nucleotide DNA oligonucleotide (“primer DNA”) of sequence 5′-[…]-3′ was 5′ end labeled using [y^32p]-ATP and T4 polynucleotide kinase. The labeled primer DNA was purified by polyacrylamide gel electrophoresis, and then annealed to a synthetic DNA oligonucleotide (“template DNA”) of the sequence 5′-[…] […]-3′, to form “template/primer DNA”. Template/primer DNA was then chain-terminated with AZTMP by incubating for 30 minutes at 37° C. with HIV-1 reverse transcriptase in 50 mM Tris-HCl, pH 7.8, containing 60 mM KCl, 10 mM MgCl2, and 100 μM AZTTP. The total incubation sample was then dried under reduced pressure and the [^32P]-labeled, 3′-AZTMP-terminated primer DNA (now 19 nucleotides in length) was purified by polyacrylamide gel electrophoresis. The purified [^32P]-labeled, 3′-AZTMP-terminated primer DNA was annealed to template DNA to form the nucleic acid excision substrate (termed “AZTMP-T/P”).
(§2) At various times thereafter, aliquots were removed and quenched by dilution into sequencing gel loading buffer (98% deionized formamide, 10 mM EDTA, and 1 mg/mL each of bromophenol blue and xylene cyanol). Samples were heated at 100° C. for 5 minutes then subjected to polyacylamide gel electrophoresis using 16% polyacrylamide/7 M urea gels. Electrophoretically resolved products were visualized and quantified by phosphorimaging analysis.
(§3) The [^32P]-labeled, 3′-AZTMP-terminated nucleic acid excision substrate (“AZTMP-T/P”) is made as described in Example 2. […] After 10 minutes (for reactions with ATP) or 5 minutes (for reactions with sodium pyrophosphate), the reactions are stopped by the addition of 2 volumes of sequencing gel loading buffer (98% deionized formamide, 10 mM EDTA, and 1 mg/ml each of bromophenol blue and xylene cyanol). An identical control reaction in which RT is omitted is also carried out simultaneously. Samples are heated at 100° C. for 5 minutes then subjected to polyacylamide gel electrophoresis using 16% polyacrylamide/7 M urea gels. Electrophoretically resolved products are visualized and quantified by phosphorimaging analysis. The percent excision is defined by the amount of the 19 nucleotide [^32P]-labeled, 3′-AZTMP-terminated primer DNA in the sample divided by the amount of the 19 nucleotide [^32P]-labeled, 3′-AZTMP-terminated primer DNA in the control, multiplied by 100.

Assay [2] has the same target. It counts as biochemical. Also noted: AZT-terminated DNA that had undergone excision; other: 20 micromolar 218A, 3 mM ATP, after 10 minutes; 65% without bisp; other: 5 micromolar bisphosphonate, 3 mM ATP, after 10 min; 65% without. The following applies: for % Inhibition of AZT excision: BPH concentration not given. How it is done:
as §1, §2, §3

Consider `Cc1cn([C@H]2C[C@H](N=[N+]=[N-])[C@@H](CO)O2)c(=O)[nH]c1=O` [AZT, 3′-azido-3′-deoxythymidine], for which the EC50 in the assay with wild type HIV-1 was ~0.14 µM; in the assay with AZT-resistant HIV-1 (Human immunodeficiency virus 1, P4/R5, read-out: EC50 of AZT in the presence of 218A), > 0.025 µM; in the assay with AZT-resistant HIV-1 (Human immunodeficiency virus 1, compound alone, P4/R5 cells, read-out: EC50 against replication), ~1.2 µM. In addition, the inhibition at 0.1 µM in the assay with AZT-resistant HIV-1 (Human immunodeficiency virus 1, P4/R5, 0.1 μM final concentration, alone, 48 hours, FIG. 6, read-out: percent inhibition of HIV replication) came to 2%. Regarding `O=P(O)(O)C(Nc1ccc(Br)cn1)P(=O)(O)O` [Compound 48B], the IC50 in assay [1] was 3.4 µM. As for `O=P(O)(O)C(Nc1ccc2c(c1)CCC2)P(=O)(O)O` [Compound 215A], in assay [1], the IC50 is 4.5 µM. For the same compound, the “% Inhibition of AZT excision” value in assay [2] was found to be 75%. Consider `CCn1c2ccccc2c2cc(NC(P(=O)(O)O)P(=O)(O)O)ccc21` [Compound 228A], for which the IC50 in assay [1] was 4.1 µM. Besides, in assay [2], the “% Inhibition of AZT excision” value is listed as 60%. For `O=P(O)(O)C(Nc1ccc(Cl)cc1Cl)P(=O)(O)O` [Compound 244A], the half-maximal inhibitory concentration (IC50) in assay [1] is 8 µM. In the case of `CC(C)c1cccc(NC(P(=O)(O)O)P(=O)(O)O)c1` [Compound 248A], the IC50 in assay [1] is 3.7 µM. Further, the “% Inhibition of AZT excision” value in assay [2] is reported as 59%. With `O=P(O)(O)C(O)(Cc1cccc(C(F)(F)F)c1)P(=O)(O)O` [Compound 250A], in assay [1], the IC50 is 2.9 µM. Further, the “% Inhibition of AZT excision” value in assay [2] came to 68%. With `O=P(O)(O)C(O)(Cc1cccc(I)c1)P(=O)(O)O` [Compound 251A], the IC50 in assay [1] was 3.4 µM. With `O=P(O)(O)C(O)(Cc1cccc(Cl)c1)P(=O)(O)O` [Compound 253A], the IC50 in assay [1] is 3.1 µM. The “% Inhibition of AZT excision” value in assay [2] is 70%. In the case of `O=P(O)(O)C(O)(Cc1cccc(Br)c1)P(=O)(O)O` [Compound 255A], in assay [1], the concentration for half-maximal inhibition (IC50) was 1.8 µM. Besides, the “% Inhibition of AZT excision” value in assay [2] is listed as 76%. For the compound `O=[N+]([O-])c1cccc(CC(O)(P(=O)(O)O)P(=O)(O)O)c1` [Compound 256A], the IC50 in assay [1] is 2.5 µM. Moreover, the “% Inhibition of AZT excision” value in assay [2] was found to be 66%.

Turning to `O=P(O)(O)C(O)(Cc1cccc2ccccc12)P(=O)(O)O` [Compound 257A], the IC50 in assay [1] was 1.35 µM. Take `O=P(O)(O)C(Nc1cccc(Cc2ccccc2)c1)P(=O)(O)O` [Compound 262A]: the IC50 in assay [1] was 4.2 µM. Also, the “% Inhibition of AZT excision” value in assay [2] was determined as 66%. With `O=P(O)(O)C(O)(Cc1cccc(I)c1)P(=O)(O)O` [Compound 279A], the IC50 in assay [1] was 1.1 µM. Regarding `O=P(O)(O)C(Nc1cccc(CO)c1)P(=O)(O)O` [Compound 280A], the half-inhibitory concentration (IC50) in assay [1] is 7.9 µM. In the case of `COCc1cccc(NC(P(=O)(O)O)P(=O)(O)O)c1` [Compound 281A], the IC50 in assay [1] is 9.5 µM. For `CN(C)Cc1cccc(CC(O)(P(=O)(O)O)P(=O)(O)O)c1` [Compound 289A], in assay [1], the IC50 is 8.3 µM. On to `O=P(O)(O)C(Cn1cnc2ccccc21)P(=O)(O)O` [Compound 298A], for which the IC50 in assay [1] is 13.5 µM.

Consider `O=P(O)(O)C(Nc1cccc(Br)c1)P(=O)(O)O` [Compound 302A], for which, in assay [1], the half-maximal inhibitory concentration (IC50) is 1 µM. Take `O=[N+]([O-])c1cccc(NC(P(=O)(O)O)P(=O)(O)O)c1` [Compound 304A]: the IC50 in assay [1] is 2.7 µM. As for `CC(C)CCNCC(P(=O)(O)O)P(=O)(O)O` [Compound 311A], the IC50 in assay [1] is 15.5 µM. Turning to `O=P(O)(O)C(CNc1cccc(-c2ccccc2)c1)P(=O)(O)O` [Compound 312A], the IC50 in assay [1] was 11.3 µM. Regarding `O=P(O)(O)C(O)(Cc1cccc(-c2ccc(F)cc2)c1)P(=O)(O)O` [Compound 313A], the IC50 in assay [1] was 1.9 µM.

For the compound `O=P(O)(O)C(O)(Cc1cccc(-c2ccc(Cl)cc2)c1)P(=O)(O)O` [Compound 314A], the IC50 in assay [1] is 0.9 µM. Consider `COc1ccc(-c2cccc(CC(O)(P(=O)(O)O)P(=O)(O)O)c2)cc1` [Compound 315A], for which the half-inhibitory concentration (IC50) in assay [1] was 2.4 µM. Consider `O=P(O)(O)C(Nc1cccc(-c2ccc(F)cc2F)c1)P(=O)(O)O` [Compound 316A], for which the 50% inhibitory concentration (IC50) in assay [1] is 3.9 µM.

Turning to `O=P(O)(O)C(Nc1cccc(-c2cc(F)cc(F)c2)c1)P(=O)(O)O` [Compound 317A], the IC50 in assay [1] is 2.1 µM.

On to `O=P(O)(O)C(O)(Cc1ccc(-c2ccc(F)cc2)cc1)P(=O)(O)O` [Compound 325A], for which the IC50 in assay [1] is 2.9 µM. In the case of `O=P(O)(O)C(O)(Cc1ccc(-c2ccc(Cl)cc2)cc1)P(=O)(O)O` [Compound 326A], the IC50 in assay [1] was 3.9 µM. On to `O=P(O)(O)C(Nc1cccc(-c2ccc(F)c(F)c2)c1)P(=O)(O)O` [Compound 327A], for which, in assay [1], the IC50 is 2.1 µM. The same measure, in the same setting: the value for `O=P(O)(O)C(O)(CC12CC3CC(CC(C3)C1)C2)P(=O)(O)O` [Compound 329A] was 4.6 µM; that for `O=P(O)(O)C(CNc1ccc(-c2ccccc2)cc1)P(=O)(O)O` [Compound 331A] was 4.6 µM.

With `O=P(O)(O)C(Nc1ccc(Cc2ccccc2)cc1)P(=O)(O)O` [Compound 332A], the IC50 in assay [1] was 3.5 µM. Turning to `COc1ccc(-c2ccc(CC(O)(P(=O)(O)O)P(=O)(O)O)cc2)cc1` [Compound 333A], in assay [1], the IC50 is 5.2 µM. Take `O=P(O)(O)C(O)(Cc1cccc(-c2cc(F)ccc2F)c1)P(=O)(O)O` [Compound 334A]: the IC50 in assay [1] is 1.5 µM.

Consider `O=P(O)(O)C(O)(Cc1cccc(-c2ccc(F)c(F)c2)c1)P(=O)(O)O` [Compound 336A], for which the IC50 in assay [1] was 1 µM. `O=P(O)(O)C(O)(Cc1cccc(Oc2ccccc2)c1)P(=O)(O)O` [Compound 339A]: in assay [1], the IC50 was 3.3 µM.

For `Cc1ccc(NC(P(=O)(O)O)P(=O)(O)O)cc1-c1ccccc1` [Compound 340A], the IC50 in assay [1] was 5 µM.

Turning to `COc1cccc(CC(O)(P(=O)(O)O)P(=O)(O)O)c1` [Compound 341A], in assay [1], the IC50 is 5.4 µM. On to `O=P(O)(O)C(O)(Cc1ccc(Cl)c(Cl)c1)P(=O)(O)O` [Compound 342A], for which the IC50 in assay [1] is 0.4 µM. In the case of `O=C(O)P(=O)(O)O` [Foscarnet, phosphonoformic acid, reference compound], the “concentration dependence of inhibition of ATP-mediated excision of AZT” value in assay [2] (increasing concentration, FIG. 3) is “did not inhibit ATP-mediated excision of AZT as well as 218A”.

One may read the EC50 as the concentration needed to bring the measured effect to its halfway point. In general, inhibition refers to the percentage by which the read-out fell short of the control. What is called IC50 is the concentration that inhibits the measured activity by half.
